Measured values taken from patent US20100087481A1, “ORAL PHARMACEUTICAL FORMULATIONS FOR ANTIDIABETIC COMPOUNDS” (priority 2008, published 2010).
Read-outs that look alike come from different tables or passages of the source.

Key:
[1] = Physical stability in selected oil-based media (visual); type: physicochemical
Source text: Physical stability of the drug was monitored visually.

[2] = Solubility in selected oil-based media; type: physicochemical; settings: oil or lipid, read-out: Solubility, Concentration
[3] = Chemical stability in selected oil-based media; type: physicochemical
Procedure: Studies were performed over a 2 week period at −20° C., 2-8° C., 40° C./75% RH and 60° C. At the elevated temperatures, chemical stability was monitored in the presence and absence of argon. Additionally, the pH stability of the drug was assessed over a seven week period at 40° C./75% RH, pH 2, 3, 5, 7, 9, and 10. […] In oil-based media containing neat Capmul® MCM or phosphatidylcholine (Phospholipon® 90G, Phosal® 53 MCT), drug recovery was >99%. […] The degradation observed in Capmul® MCM was inhibited by the addition of argon.

[4] = in aqueous solvents and in most organic solvents; cited from earlier work

For O=S(=O)(Nc1cc(Cl)c(Oc2cnc3ccccc3c2)c(Cl)c1)c1ccc(Cl)cc1Cl.O=S(=O)(O)c1ccccc1 [besylate salt of compound 101, 2,4-Dichloro-N-[3,5-dichloro-4-(quinolin-3-yloxy)-phenyl]-benzenesulfonamide benzenesulfonate salt], the “Physical stability (visual)” value ([1]; addition of 47% Capmul® MCM to oil-based media containing Phospholipon® 90G) was “inhibited solid formation”, the “Physical stability (visual)” value ([1]; high concentrations of Capmul® (>80%)) was “solidification and cloudiness” and the “Physical stability (visual)” value ([1]; warming then cooling compositions with more than 50% Phospholipon® 90G) was “formation of a fine suspension”. The solubility ([2]; Capmul® MCM (oil-based medium), in Capmul ® MCM) was 16600 µg/mL, the solubility ([2]; Capmul® PG8 (oil-based medium), in Capmul ® PG8) was 2010 µg/mL and the solubility ([2]; Captex® 200 (oil-based medium), in Captex ® 200) was 450 µg/mL. The solubility ([2]; Captex® 300EP (oil-based medium), in Captex ® 300EP) was 280 µg/mL, the solubility ([2]; Captex® 355 (oil-based medium), in Captex ® 355) was 520 µg/mL and the solubility ([2]; Crodamol® (oil-based medium), in Crodamol ®) was 450 µg/mL. For the same molecule, the solubility ([2]; Inwitor 742 (oil-based medium), in Inwitor 742) was 7930 µg/mL, the solubility ([2]; Labrafac® CC (oil-based medium), in Labrafac ® CC) was 290 µg/mL and the solubility ([2]; Labrafil® M 1944 CS (oil-based medium), in Labrafil ® M 1944 CS) was 2340 µg/mL. For the same molecule, the solubility ([2]; Labrasol® (oil-based medium), in Labrasol ®) was 29200 µg/mL, the solubility ([2]; Maisine 35-I (oil-based medium), in Maisine 35-I) was 1160 µg/mL and the solubility ([2]; Miglyol® 132 (oil-based medium), in Miglyol ® 132) was 800 µg/mL. The solubility ([2]; Miglyol® 810N (oil-based medium), in Miglyol ® 810N) was 380 µg/mL, the solubility ([2]; Miglyol® 812N (oil-based medium), in Miglyol ® 812N) was 7930 µg/mL and the solubility ([2]; Peceol (oil-based medium), in Peceol) was 3940 µg/mL. The solubility ([2]; Phosal® 53 MCT (oil-based medium), in Phosal ® 53 MCT) was 43400 µg/mL, the solubility ([2]; in Corn Oil) was 160 µg/mL and the solubility ([2]; in Super-refined soybean oil) was 40 µg/mL. The Drug degradation ([3]; in Capmul® MCM at 60° C.) was 7%, the “Effect of argon on degradation” value ([3]; in Capmul® MCM, addition of argon) was “inhibited” and the Drug degradation ([3]; in Phosal® 53 MCT at 60° C.) was “no drug degradation”. The “Degradation of the drug” value ([3]; in the presence of Labrasol®, Capmul® MCM and Phospholipon® 90G, 40° C., 2-week period) was “little or no degradation” and the Solubility in words [4] was “sparingly soluble”.
